Results taken from patent US11273151B2, “Methods of treating tumors and cancer, and identifying candidate subjects for such treatment” (ICAHN SCHOOL OF MEDICINE AT MOUNT SINAI, priority 2015, dated 2022).
“Also recorded” adds a separate entry of the source.

Experiments:
[1] = test system: TEAD/YAP dependent transcription; test: TEAD4 luciferase reporter assay; format: cell-based, human
Description: Cells were plated at 2×10^4 cells/well in 24 well plates, unless otherwise stated, 48 hours before collection and treated or genetically manipulated as described. Firefly and renilla luciferase activities were assayed with the dual luciferase assay system (Promega, Madison Wis., USA), as directed, and firefly luciferase activity was normalized to renilla luciferase activity. Firefly and renilla luminescence were measured with the TD-20e Luminometer (Turner).

MDA-MB-231 = test: Clonogenic cell proliferation assay, MDA-MB-231; format: cell-based, human; settings: 10 μM; MDA-MB-231, p53 DNA-contact mutation
Description: (§1) For clonogenic assay, cells were plated in triplicate at 1×10^3 cells in 6-well plates. Cells were treated or genetically manipulated as described. After 10 to 14 days, colonies were stained with 1% crystal violet in ethanol and photographed.

SK-BR-3 = test: Clonogenic cell proliferation assay, SK-BR-3; format: cell-based, human; settings: 10 μM; SK-BR-3, p53 conformational mutation
Description: as §1

[2] = test system: tumor lines with p53 DNA-contact mutations; test: Clonogenic cell proliferation assay, p53 DNA-contact mutant tumor lines; format: cell-based, human
Description: as §1

ROCK1 = ROCK1 (Homo sapiens, UniProt Q13464); settings: read-out: reported ICD50 for inhibition of ROCK1; cited from earlier work
ROCK2 = ROCK2 (Homo sapiens, UniProt O75116); settings: read-out: reported ICD50 for inhibition of ROCK2; cited from earlier work
[3] = test system: tumor lines expressing p53 conformational mutations; test: Clonogenic cell proliferation assay, p53 conformational mutant tumor lines; format: cell-based, human; settings: for inhibition of proliferation: single agent, concentration not given
Description: as §1

SK-LMS-1 = test: Clonogenic cell proliferation assay, SK-LMS-1; format: cell-based, human; settings: SK-LMS-1, p53 conformational mutation; concentration not given
Description: as §1

MDA-MB-468 = test: Clonogenic cell proliferation assay, MDA-MB-468; format: cell-based, human; settings: MDA-MB-468, p53-DNA contact tumor line
Description: as §1

HCC-193 = test: Clonogenic cell proliferation assay, HCC-193; format: cell-based, human; settings: HCC-193, p53-DNA contact tumor line
Description: as §1

HCC-1395 = test: Clonogenic cell proliferation assay, HCC-1395; format: cell-based, human; settings: HCC-1395, p53 conformational mutant line
Description: as §1

[4] = test system: tumor lines harboring mutations in Hippo pathway core components; test: Proliferation of tumor lines with Hippo pathway core component lesions; format: cell-based; settings: tumor cells with lesions in Hippo pathway core components
Description: as §1

non-tumorigenic cells = test: Proliferation of non-tumorigenic cells; format: cell-based; settings: FIG. 7
Description: as §1

[5] = test system: TEAD endogenous target gene expression; test: Quantitative real-time PCR of TEAD endogenous target genes; format: cell-based, human; settings: p53 DNA-contact mutant tumor lines
Description: Total RNA was extracted from cells using QIAshredder (Qiagen, Valencia, Calif., USA) and RNeasy Mini kit (Qiagen) following the manufacturer's instructions. First-strand cDNA synthesis was performed using Superscript II reverse transcriptase (Invitrogen, Carlsbad, Calif., USA) according to the manufacturer's instructions. Quantitative PCR was carried out using the ViiA™ 7 Real-Time PCR System (Life Technologies) using the FastStart SYBR Green Master mix (Roche, 04673492001). Primers were as follows: PCR was performed in 384 well plates using 10 μl volumes under the following conditions: 95° C. for 15 min, followed by 40 cycles of 94° C. for 15 sec, 61° C. for 30 sec, and 72° C. for 30 sec. Specificity was verified by a dissociation curve. Results were analyzed with ViiA7 RUO software (Life Technologies).

MCF10A cells = test: Anchorage-independent growth assay in soft agar; format: cell-based; settings: FIG. 4C
Description: Growth in soft agar was determined by seeding 2.5×10^3 MCF10A cells in 1 ml of growth media containing 0.3% agar (BD 214050) on top of 1 ml of 0.48% agar in 35-mm dishes. Cells were fed every 4 days for 3 weeks with 0.2 mL of growth medium. Colonies were stained with 1% crystal violet in ethanol and photographed. Colony density was measured using Image J. Assays were conducted in triplicate.

[6] = single agent, concentration not given

ROCK1, sequence (Q13464 whole entry): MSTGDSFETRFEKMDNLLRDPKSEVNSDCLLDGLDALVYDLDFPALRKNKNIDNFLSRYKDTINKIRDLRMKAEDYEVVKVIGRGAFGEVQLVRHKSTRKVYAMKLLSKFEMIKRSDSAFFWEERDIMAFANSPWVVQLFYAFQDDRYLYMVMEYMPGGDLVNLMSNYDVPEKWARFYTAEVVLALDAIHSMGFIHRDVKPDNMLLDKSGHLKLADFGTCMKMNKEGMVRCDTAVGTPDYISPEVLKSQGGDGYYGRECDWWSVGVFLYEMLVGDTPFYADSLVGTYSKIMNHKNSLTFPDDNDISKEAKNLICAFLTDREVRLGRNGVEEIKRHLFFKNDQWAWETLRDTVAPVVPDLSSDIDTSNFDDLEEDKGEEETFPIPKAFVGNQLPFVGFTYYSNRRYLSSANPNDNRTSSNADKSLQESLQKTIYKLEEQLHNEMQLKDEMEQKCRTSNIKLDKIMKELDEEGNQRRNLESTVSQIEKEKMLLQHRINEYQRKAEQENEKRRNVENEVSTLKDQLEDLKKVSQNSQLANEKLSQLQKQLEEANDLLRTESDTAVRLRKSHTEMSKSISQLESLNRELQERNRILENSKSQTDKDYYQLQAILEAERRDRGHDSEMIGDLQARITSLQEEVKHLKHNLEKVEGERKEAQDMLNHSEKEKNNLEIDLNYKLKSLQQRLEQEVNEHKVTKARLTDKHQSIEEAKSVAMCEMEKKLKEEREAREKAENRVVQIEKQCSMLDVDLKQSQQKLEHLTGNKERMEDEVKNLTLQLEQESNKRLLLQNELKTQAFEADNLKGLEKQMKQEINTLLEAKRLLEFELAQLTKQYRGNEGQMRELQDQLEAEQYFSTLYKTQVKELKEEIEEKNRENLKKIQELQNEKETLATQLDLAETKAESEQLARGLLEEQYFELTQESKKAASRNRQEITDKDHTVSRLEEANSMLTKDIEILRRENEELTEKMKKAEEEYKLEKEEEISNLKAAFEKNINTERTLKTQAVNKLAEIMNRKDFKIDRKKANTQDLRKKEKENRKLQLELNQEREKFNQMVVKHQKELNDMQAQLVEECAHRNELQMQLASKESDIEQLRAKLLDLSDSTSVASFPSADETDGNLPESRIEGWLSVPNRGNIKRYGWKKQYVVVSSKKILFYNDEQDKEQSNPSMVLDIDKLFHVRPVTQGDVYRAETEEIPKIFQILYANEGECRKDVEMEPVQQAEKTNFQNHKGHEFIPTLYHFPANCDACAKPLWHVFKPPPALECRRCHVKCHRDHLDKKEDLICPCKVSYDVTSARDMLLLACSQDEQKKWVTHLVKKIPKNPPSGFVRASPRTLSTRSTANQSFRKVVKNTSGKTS
ROCK2, sequence (O75116 whole entry): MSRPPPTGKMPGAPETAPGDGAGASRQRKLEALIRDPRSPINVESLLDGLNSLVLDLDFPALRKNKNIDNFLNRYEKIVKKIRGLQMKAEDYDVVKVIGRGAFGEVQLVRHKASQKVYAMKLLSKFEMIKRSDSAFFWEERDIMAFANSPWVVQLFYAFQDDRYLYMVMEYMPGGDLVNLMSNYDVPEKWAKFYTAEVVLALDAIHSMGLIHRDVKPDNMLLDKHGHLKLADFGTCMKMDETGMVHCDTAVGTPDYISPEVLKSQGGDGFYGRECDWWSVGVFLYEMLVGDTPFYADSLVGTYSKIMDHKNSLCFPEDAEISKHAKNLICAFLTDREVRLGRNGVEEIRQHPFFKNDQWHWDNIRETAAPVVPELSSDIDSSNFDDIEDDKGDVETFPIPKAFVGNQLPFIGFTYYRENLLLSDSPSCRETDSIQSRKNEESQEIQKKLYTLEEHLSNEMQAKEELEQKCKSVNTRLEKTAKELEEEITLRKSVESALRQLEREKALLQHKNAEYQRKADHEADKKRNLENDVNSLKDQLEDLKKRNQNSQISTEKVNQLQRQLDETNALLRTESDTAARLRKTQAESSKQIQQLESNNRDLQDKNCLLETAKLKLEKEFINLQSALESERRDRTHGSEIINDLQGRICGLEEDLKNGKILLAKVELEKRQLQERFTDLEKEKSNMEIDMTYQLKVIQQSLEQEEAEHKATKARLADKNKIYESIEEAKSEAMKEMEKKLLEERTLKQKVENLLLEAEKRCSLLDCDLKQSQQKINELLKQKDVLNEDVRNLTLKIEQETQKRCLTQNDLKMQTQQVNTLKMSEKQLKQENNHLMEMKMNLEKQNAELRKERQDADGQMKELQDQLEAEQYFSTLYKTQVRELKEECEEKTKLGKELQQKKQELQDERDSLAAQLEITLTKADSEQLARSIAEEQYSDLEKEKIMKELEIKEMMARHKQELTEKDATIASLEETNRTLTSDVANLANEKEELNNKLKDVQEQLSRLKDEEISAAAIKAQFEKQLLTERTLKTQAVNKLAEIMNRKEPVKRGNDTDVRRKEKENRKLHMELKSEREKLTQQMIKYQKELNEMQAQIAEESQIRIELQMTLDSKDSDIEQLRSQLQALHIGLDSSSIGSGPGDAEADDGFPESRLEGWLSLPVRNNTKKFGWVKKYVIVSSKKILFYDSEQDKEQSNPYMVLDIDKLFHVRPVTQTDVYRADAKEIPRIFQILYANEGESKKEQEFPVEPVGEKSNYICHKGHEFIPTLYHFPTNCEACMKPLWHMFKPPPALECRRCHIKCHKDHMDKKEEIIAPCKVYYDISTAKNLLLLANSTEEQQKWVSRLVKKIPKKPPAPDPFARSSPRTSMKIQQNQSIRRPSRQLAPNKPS

O=S(=O)(c1cccc2cnccc12)N1CCCNCC1 [Fasudil]
inhibition of TEAD/YAP dependent transcription (TEAD reporter activity) ([1]; 10 μM, MDA-MB-231, FIG. 5A): little if any detectable inhibition; also recorded: lack of effect | effect on proliferation (MDA-MB-231): no effect | effect on proliferation (SK-BR-3): no effect

Cc1cncc2cccc(S(=O)(=O)N3CCCN(C(=O)CN)C[C@@H]3C)c12 [Glycyl-H-1152]
inhibition of TEAD/YAP dependent transcription ([1]; 1 μM, MDA-MB-231, FIG. 5A): marked inhibition | inhibition of proliferation ([2]; 1 μM): strikingly and specifically inhibited proliferation | concentration for specific inhibition of proliferation, lower than Y-27632 ([2]; relative to Y-27632): 10 fold | IC50 (ROCK1): 6 nM | IC50 (ROCK2): 11.8 nM

Oc1nc(-c2ccc(C(F)(F)F)cc2)nc2c1CSCC2 [XAV939]
inhibition of proliferation [2, 6]: antagonize the proliferation | inhibition of proliferation [3]: neither XAV939 nor Y-27632 inhibits proliferation | inhibition of proliferation (SK-LMS-1): had no effect on the proliferation | inhibition of proliferation (MDA-MB-468): able to inhibit the proliferation | inhibition of proliferation (HCC-193): able to inhibit the proliferation | inhibition of proliferation (HCC-1395): had no effect on the proliferation | effect on growth / proliferation [4]: inhibits proliferation | inhibition of proliferation (non-tumorigenic cells): neither XAV939 nor Y-27632 inhibits proliferation

C[C@@H](N)[C@H]1CC[C@H](C(=O)Nc2ccncc2)CC1 [Y-27632]
effect on TEAD reporter ([1]; p53 DNA-contact mutant tumor lines, FIG. 4A): antagonized | effect on TEAD endogenous target gene expression [5]: antagonized | inhibition of colony formation / proliferation ([2]; 10-50 uM, 3 different p53 contact mutant tumor cells, FIG. 5B): almost complete inhibition of colony formation; also recorded: specific inhibition of proliferation | inhibition of proliferation [2, 6]: specifically inhibiting the proliferation; also recorded: specifically inhibit the proliferation; also recorded: antagonize the proliferation; also recorded: specifically inhibited proliferation | inhibition of colony formation ([3]; even at 100 μM, FIG. 5B): no detectable inhibition of colony formation | inhibition of proliferation [3]: neither XAV939 nor Y-27632 inhibits proliferation | growth inhibitory effects on any of the other tumor cells analyzed ([3]; tumor cells without p53 DNA contact mutation, FIG. 4B): without any obvious growth inhibitory effects | inhibition of proliferation (non-tumorigenic cells): neither XAV939 nor Y-27632 inhibits proliferation | effect on transforming ability (colony formation in soft agar) (MCF10A cells; MCF10a cells overexpressing YAP): specifically and markedly impaired the transforming ability | effect on transforming ability (colony formation in soft agar) (MCF10A cells; MCF10a cells overexpressing mutant HRAS): lack of effects | effect on transforming ability (colony formation in soft agar) (MCF10A cells; MCF10a cells overexpressing p53 R175H (conformational)): lack of effects | effect on transforming ability (colony formation in soft agar) (MCF10A cells; MCF10a cells overexpressing p53 R273H (DNA contact)): specifically and markedly impaired the transforming ability

Verteporfin
inhibition of proliferation [2, 6]: inhibit proliferation | inhibition of proliferation [3]: inhibited the proliferation; also recorded: inhibiting proliferation
